Results: paper PMC9177545, “3-oxo-C12:2-HSL, quorum sensing molecule from human intestinal microbiota, inhibits pro-inflammatory pathways in immune cells via bitter taste receptors” (Scientific Reports, 2022)

Biological target: T1, TAS2R138 (Mus musculus, UniProt Q7TQA6)
T1 construct: endogenous in cells; host or cells: RAW264.7 murine macrophages (ATCC)
T1 sequence (Q7TQA6 1-331): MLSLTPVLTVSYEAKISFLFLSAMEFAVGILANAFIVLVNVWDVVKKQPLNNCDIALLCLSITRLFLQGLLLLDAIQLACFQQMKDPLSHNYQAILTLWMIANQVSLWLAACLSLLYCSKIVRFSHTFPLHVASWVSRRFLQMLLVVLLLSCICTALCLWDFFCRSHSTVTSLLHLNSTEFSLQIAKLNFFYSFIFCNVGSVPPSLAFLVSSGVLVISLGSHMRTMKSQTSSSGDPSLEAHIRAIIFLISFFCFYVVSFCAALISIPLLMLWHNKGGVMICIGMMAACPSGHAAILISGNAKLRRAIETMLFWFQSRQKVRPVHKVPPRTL
Assay: TAS2R38/TAS2R138 inhibition experiment: TNFα secretion of RAW264.7 cells pre-treated with probenecid
Type: cell-based
Conditions: 1 mM probenecid, one hour before LPS and IFNγ, six hours
Experimental: In RAW264.7 cells, inflammation was triggered with LPS (10 ng/mL, Sigma) and IFNγ (10 U/mL, R&Dsystems) for 2 h or 6 h, depending on the experiments. PBMC were exposed to LPS (10 ng/mL) and AHL for 24 h. For TAS2R38 inhibition experiments, cells were exposed to TAS2R38 allosteric inhibitor probenecid (1 mM, Sigma) for one hour before adding AHLs and the inflammatory cocktail, without changing the media.
At the end of cell treatment, the medium was centrifuged at 300g for 5 min at 4 °C. Supernatant was frozen at − 80 °C until ELISA assays. TNFα and IL-1β ELISA kits were purchased from R&D systems and performed according to the manufacturer’s instructions. Briefly, plates were coated with a capture antibody and incubated overnight. Wells were blocked using 1% bovine serum albumin-PBS solution (Sigma), then exposed to cell supernatants at room temperature for two hours. Wells were washed and incubated with the detection antibody for an additional two hours. After thorough washing, Streptavidin-HRP solution was added for 20 min. Wells were washed, then incubated with TMB (Biolegend) solution for 20 min and the reaction was stopped using 1 M H2SO4. Absorbance was measured by a spectrometer (FLUOstar Omega; BMG Labtech) at 450 nm and the absorbance at 540 nm was subtracted.

effect on TNFα secretion in activated cells cultured in absence of 3-oxo-C12:2-HSL: no effect
Structure (SMILES): CCCN(CCC)S(=O)(=O)c1ccc(C(=O)O)cc1 [probenecid, reference compound]
